# Reference: US20230310540A1, “PEPTIDE COMPOSITIONS AND METHODS OF USE THEREOF” (priority 2020, published 2023)
# Square brackets hold non-standard residues; d marks the D form. Peptide text beside a SMILES is read from it. d(hArg) = N=C(N)NCCCC[C@@H](N)C(=O)O
# Assays:
# Type in all cases: cell-based
# [1] = tested on: E. coli; conditions: for MIC in Broth Dilution, E. coli, RBC −: absence of RBC; for MIC in Broth Dilution, E. coli, RBC − / MIC in Broth Dilution, E. coli, RBC +: Table 3; for MIC, E. coli, No RBC / MIC, E. coli, 10^9 cells/ml RBC: Table 2; for MIC in Broth Dilution, E. coli, RBC +: presence of 1×10^9 human RBC/ml; for MIC, E. coli, 10^9 cells/ml RBC: with 10^9 human RBC/ml
# Experimental: (§1) Peptide variants of D-CONGA (SEQ ID NO: 1) were tested for activity against E. coli, K. pneumoniae, and S. aureus. Minimum Inhibitory Concentrations (MIC) were measured in 96-well plates by broth dilution. Peptides were serially diluted in buffer or in buffer containing 1×10^9 human RBC/ml. Following 1 hr. incubation, bacteria in growth media were added and the plates were incubated overnight at 37° C. Sterilized, wells were identified to determine MIC. Hemolysis was measured by incubating 1×10^8 human RBCs with serially diluted peptide for 30 minutes followed by centrifugation of the cells and measurements of the released hemoglobin in the supernatant by absorbance at 410 nm. The value for 100% hemolysis was established by treatment with the detergent Triton-X100. Toxicity was measured by incubating serially diluted peptide with WI38 human fibroblast cells in the presence of SYTOX Green, a DNA binding dye that reports on cell death by membrane permeabilization. The peptide concentration that gives 50% cytotoxicity by relative SYTOX Green fluorescence, is denoted EC50.
# (§2) Antimicrobial peptides and conventional antibiotics were prepared at 5-times the final concentration needed in 0.025% acetic acid. The antibiotics were serially diluted by a factor of 2:3 horizontally across 96-well plates from Corning, 25 μL per well. One column was reserved for controls. For the assays performed in the presence of RBC, type O+ human RBCs at 0 or 2.5×10^9 cells/mL were added in 50 μL aliquots to all wells. Following a 30-minute incubation, 50 μL of TSB, inoculated with 5×10^5 CFU/mL, was added to all wells, and plates were incubated overnight at 37° C. Following overnight incubation at 37° C., the OD600 was measured (values of less than 0.1 were considered sterilized). To assess bacterial growth in the assays with RBC, the OD600 was measured after a second day inoculation with 10 μL of solution from the original plate added to 100 μL of sterile TSB followed by overnight incubation.
# (§3) MIC values were reported in μM peptide against gram-negative E. coli (EC), P. aeruginosa (PA), and gram-positive S. aureus (SA). The two columns under each organism are for assays performed in the absence (−) and presence (+) of 1×10^9 human RBC/ml. “>30” means that sterilization was not observed at 30 μM, the highest concentration tested. The column marked “hemolysis” is the fractional hemolysis of 1×10^8 human RBC/ml at 100 μM peptide determined from measurements of serially diluted peptide, starting from 100 μM. The column marked “EC 50” contains the concentration of peptide that kills 50% of WI-38 human fibroblast cells assayed by entry of SYTOX™ Green DNA binding dye.
# [2] = tested on: S. aureus; conditions: for MIC in Broth Dilution, S. Aureus, RBC −: absence of RBC; for MIC in Broth Dilution, S. Aureus, RBC − / MIC in Broth Dilution, S. Aureus, RBC +: Table 3; for MIC, S. aureus, No RBC / MIC, S. aureus, 10^9 cells/ml RBC: Table 2; for MIC in Broth Dilution, S. Aureus, RBC +: presence of 1×10^9 human RBC/ml; for MIC, S. aureus, 10^9 cells/ml RBC: with 10^9 human RBC/ml
# Experimental: as §1, §2, §3
# [3] = tested on: human RBCs; assay: Hemolysis of human RBCs
# Experimental: as §1
# Peptide was serially diluted in PBS starting at a concentration of 100 μM. The final volume of peptide in each well was 50 μL. To each well, 50 μL of RBCs in PBS at 2×10^8 cells/mL was added. As a positive lysis control, 1% triton was used. The mixtures were incubated at 37° C. for 1 hour, after which they were centrifuged at 1000 g for 5 minutes. After centrifugation, 10 μL of supernatant was transferred to 90 μL of DI H2O in a fresh 96-well plate. The absorbance of released hemoglobin at 410 nm was recorded and the fractional hemolysis was calculated based on the 100% and 0% lysis controls.
# as §3
SMILES,"MIC in Broth Dilution, E. coli, RBC − [1] [µM]","MIC, E. coli, No RBC [1] [µM]","MIC in Broth Dilution, E. coli, RBC + [1] [µM]","MIC, E. coli, 10^9 cells/ml RBC [1] [μM]","MIC in Broth Dilution, S. Aureus, RBC − [2] [µM]","MIC, S. aureus, No RBC [2] [µM]","MIC in Broth Dilution, S. Aureus, RBC + [2] [µM]","MIC, S. aureus, 10^9 cells/ml RBC [2] [μM]",Hemolysis at 100 μM [3]
"CC(C)C[C@@H](NC(=O)[C@@H](CCCNC(=N)N)NC(=O)[C@H](N)CCCNC(=N)N)C(=O)N[C@H](C)C(=O)N[C@H](Cc1ccccc1)C(=O)N[C@H](C)C(=O)N[C@H](Cc1ccccc1)C(=O)N[C@H](Cc1c[nH]c2ccccc12)C(=O)N[C@H](C)C(=O)N[C@H](CCCNC(=N)N)C(=O)N[C@H](CCCNC(=N)N)C(=O)N[C@H](CCCNC(=N)N)C(=O)N[C@H](CCCNC(=N)N)C(N)=O [D-CONGA-FLIP, rrlafafwarrrr (All D)] (H-[dR][dR][dL][dA][dF][dA][dF][dW][dA][dR][dR][dR][dR]-NH2)",1,1,1.5,1.5,1.7,1.7,3.7,3.7,0.05
"CC(C)C[C@@H](NC(=O)CNC(=O)[C@@H](CCCNC(=N)N)NC(=O)[C@@H](CCCNC(=N)N)NC(=O)[C@@H](C)NC(=O)[C@@H](Cc1c[nH]c2ccccc12)NC(=O)[C@@H](CCCNC(=N)N)NC(=O)[C@H](N)CCCNC(=N)N)C(=O)N[C@H](C)C(=O)N[C@H](Cc1ccccc1)C(=O)N[C@H](C)C(=O)N[C@H](Cc1ccccc1)C(=O)N[C@H](CCCNC(=N)N)C(=O)N[C@H](CCCNC(=N)N)C(N)=O [D-CONGA-G7, rrwarrglafafrr (All D)] (H-[dR][dR][dW][dA][dR][dR]G[dL][dA][dF][dA][dF][dR][dR]-NH2)",1.3,1.3,1.4,1.4,6.4,6.4,6.9,6.9,0.07
"CC(C)C[C@@H](NC(=O)[C@@H](CCCCNC(=N)N)NC(=O)[C@@H](CCCCNC(=N)N)NC(=O)[C@@H](C)NC(=O)[C@@H](Cc1c[nH]c2ccccc12)NC(=O)[C@@H](CCCNC(=N)N)NC(=O)[C@H](N)CCCNC(=N)N)C(=O)N[C@H](C)C(=O)N[C@H](Cc1ccccc1)C(=O)N[C@H](C)C(=O)N[C@H](Cc1ccccc1)C(=O)N[C@H](CCCNC(=N)N)C(=O)N[C@H](CCCNC(=N)N)C(N)=O [D-CONGA-HomoR, rrwa (homo r, homo r)lafafrr] (H-[dR][dR][dW][dA][d(hArg)][d(hArg)][dL][dA][dF][dA][dF][dR][dR]-NH2)",1.3,1.3,2.2,2.2,1.7,1.7,2.5,2.5,0.06
"CC(C)C[C@@H](NC(=O)[C@@H](CCCNC(=N)N)NC(=O)[C@H](CCCNC(=N)N)NC(=O)[C@@H](C)NC(=O)[C@@H](Cc1c[nH]c2ccccc12)NC(=O)[C@@H](CCCNC(=N)N)NC(=O)[C@H](N)CCCNC(=N)N)C(=O)N[C@H](C)C(=O)N[C@H](Cc1ccccc1)C(=O)N[C@@H](C)C(=O)N[C@H](Cc1ccccc1)C(=O)N[C@H](CCCNC(=N)N)C(=O)N[C@H](CCCNC(=N)N)C(N)=O [D-CONGA-L(R5, A10), rrwaRrlafAfrr] (H-[dR][dR][dW][dA]R[dR][dL][dA][dF]A[dF][dR][dR]-NH2)",1.4,1.4,1.4,1.4,>30,30,>30,30,0.04
"CC(C)C[C@@H](NC(=O)[C@@H](CCCNC(=N)N)NC(=O)[C@@H](CCCNC(=N)N)NC(=O)[C@@H](Cc1c[nH]c2ccccc12)NC(=O)[C@@H](CCCNC(=N)N)NC(=O)[C@H](N)CCCNC(=N)N)C(=O)N[C@H](C)C(=O)N[C@H](Cc1ccccc1)C(=O)N[C@H](C)C(=O)N[C@H](Cc1ccccc1)C(=O)N[C@H](CCCNC(=N)N)C(=O)N[C@H](CCCNC(=N)N)C(N)=O [D-CONGA-ΔA4, rrwrrlafafrr (All D)] (H-[dR][dR][dW][dR][dR][dL][dA][dF][dA][dF][dR][dR]-NH2)",1.6,1.6,2.8,2.8,3.2,3.2,2.3,2.3,0.02
"CC(C)C[C@@H](NC(=O)[C@@H](CCCNC(=N)N)NC(=O)[C@@H](CCCNC(=N)N)NC(=O)[C@@H](C)NC(=O)[C@@H](Cc1c[nH]c2ccccc12)NC(=O)[C@@H](CCCNC(=N)N)NC(=O)[C@H](N)CCCNC(=N)N)C(=O)N[C@H](C)C(=O)N[C@H](Cc1ccccc1)C(=O)N[C@H](Cc1ccccc1)C(=O)N[C@H](CCCNC(=N)N)C(=O)N[C@H](CCCNC(=N)N)C(N)=O [D-CONGA-ΔA10, rrwarrlaffrr (All D)] (H-[dR][dR][dW][dA][dR][dR][dL][dA][dF][dF][dR][dR]-NH2)",0.7,0.7,1.3,1.3,23.5,24,19,19,0.02
"CC(C)C[C@@H](NC(=O)[C@@H](CCCNC(=N)N)NC(=O)[C@@H](CCCNC(=N)N)NC(=O)[C@@H](C)NC(=O)[C@@H](Cc1c[nH]c2ccccc12)NC(=O)[C@@H](CCCNC(=N)N)NC(=O)[C@H](N)CCCNC(=N)N)C(=O)N[C@H](C)C(=O)N[C@H](Cc1ccccc1)C(=O)N[C@H](C)C(=O)N[C@H](Cc1ccccc1)C(=O)N[C@H](CCCNC(=N)N)C(N)=O [D-CONGA-ΔR13, rrwarrlafafr (All D)] (H-[dR][dR][dW][dA][dR][dR][dL][dA][dF][dA][dF][dR]-NH2)",0.9,0.9,0.6,0.6,27.1,27,>30,30,0.03
"CC(C)C[C@H](NC(=O)[C@H](CCCNC(=N)N)NC(=O)[C@H](CCCNC(=N)N)NC(=O)[C@H](C)NC(=O)[C@H](Cc1c[nH]c2ccccc12)NC(=O)[C@H](CCCNC(=N)N)NC(=O)[C@H](N)CCCNC(=N)N)C(=O)N[C@@H](C)C(=O)N[C@@H](Cc1ccccc1)C(=O)N[C@@H](C)C(=O)N[C@@H](Cc1ccccc1)C(=O)N[C@@H](CCCNC(=N)N)C(=O)N[C@H](CCCNC(=N)N)C(N)=O [L-CONGA-D(R1, R13)] (H-[dR]RWARRLAFAFR[dR]-NH2)",20,20,26.2,26.2,>30,30,>30,30,0.01
